Assay results reported in patent publication US20260102501A1, “ANTI-CANCER NUCLEAR HORMONE RECEPTOR-TARGETING COMPOUNDS” (Nuvation Bio Inc., priority 2022, published 2026).
Substitutions are numbered along the chain they refer to. Structures can show the parent of a compound that is named as a salt. Where two headings read alike, the source gives them in different places.

What was measured:
[1] = test system: IEC6 cells; experiment: Cell viability assay (CellTiterGlo); details: Rattus norvegicus, IEC-6, 144 h, read-out: IEC-6 (IC50, nM)
[2] = test system: T47D cells; experiment: Cell viability assay (CellTiterGlo); assay type: cell-based; details: Homo sapiens, 144 h, 6 days incubation, CellTiterGlo, read-out: T47D (IC50)
[3] = test system: LNCap cells; experiment: Cell viability assay (CellTiterGlo); assay type: cell-based; details: Homo sapiens, 144 h
[4] = biological target: T1, AR (cytosol from LnCaP cells) (Homo sapiens, UniProt P10275, T878A); experiment: AR binding assay (3H-R1881 displacement)
T1 sequence (P10275 1-920 T878A): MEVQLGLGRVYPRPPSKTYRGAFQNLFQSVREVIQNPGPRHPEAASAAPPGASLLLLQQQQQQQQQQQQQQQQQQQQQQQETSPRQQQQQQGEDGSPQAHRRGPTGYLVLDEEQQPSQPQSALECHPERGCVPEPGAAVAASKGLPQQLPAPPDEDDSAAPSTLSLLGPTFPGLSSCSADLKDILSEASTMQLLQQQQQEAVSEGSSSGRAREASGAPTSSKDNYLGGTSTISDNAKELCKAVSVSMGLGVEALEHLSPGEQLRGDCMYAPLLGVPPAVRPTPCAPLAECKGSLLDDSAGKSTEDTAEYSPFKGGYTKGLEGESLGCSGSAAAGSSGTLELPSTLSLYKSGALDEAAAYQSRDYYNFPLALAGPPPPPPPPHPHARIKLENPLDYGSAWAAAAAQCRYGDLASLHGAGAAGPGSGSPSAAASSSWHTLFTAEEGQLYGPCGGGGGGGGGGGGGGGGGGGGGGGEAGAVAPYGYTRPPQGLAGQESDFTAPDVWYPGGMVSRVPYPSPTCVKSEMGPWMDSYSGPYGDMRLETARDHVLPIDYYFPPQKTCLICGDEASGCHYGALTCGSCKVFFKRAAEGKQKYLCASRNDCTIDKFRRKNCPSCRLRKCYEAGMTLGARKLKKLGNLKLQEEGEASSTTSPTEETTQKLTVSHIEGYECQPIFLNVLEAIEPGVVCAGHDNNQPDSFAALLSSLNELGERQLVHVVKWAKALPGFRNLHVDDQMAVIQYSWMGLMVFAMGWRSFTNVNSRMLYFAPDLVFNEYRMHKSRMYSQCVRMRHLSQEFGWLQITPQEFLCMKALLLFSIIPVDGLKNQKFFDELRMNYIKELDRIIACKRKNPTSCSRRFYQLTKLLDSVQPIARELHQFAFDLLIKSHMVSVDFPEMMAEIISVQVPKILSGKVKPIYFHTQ
Protocol: The plate was then centrifuged at 3000 rpm for 30 minutes at 4° C.

[5] = biological target: T2, full-length androgen receptor (HEK293 cells stably expressing) (Homo sapiens, UniProt P10275); experiment: AR antagonism assay (luciferase reporter)
T2 sequence (P10275 1-920): T1 sequence (P10275 1-920 T878A) with A878T

[6] = test system: 22Rv1 cells; experiment: Cell viability assay (CellTiterGlo); details: Homo sapiens, 22Rv1, 144 h, read-out: 22RV1 (IC50, nM)
[7] = biological target: T3, ligand binding domain of the glucocorticoid receptor (HEK293 cells stably expressing) (Homo sapiens, UniProt P04150); experiment: GR antagonism assay (luciferase reporter)
T3 sequence (P04150 524-758 limits assumed): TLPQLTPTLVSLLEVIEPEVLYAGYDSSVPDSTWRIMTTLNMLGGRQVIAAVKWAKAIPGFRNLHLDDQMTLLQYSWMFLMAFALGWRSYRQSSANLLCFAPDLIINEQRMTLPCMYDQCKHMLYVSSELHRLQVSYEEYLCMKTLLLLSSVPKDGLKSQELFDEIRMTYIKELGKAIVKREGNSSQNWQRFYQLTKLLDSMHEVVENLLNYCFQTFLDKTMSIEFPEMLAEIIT

[8] = biological target: T4, GR (cytosol from IM-9 cells) (Homo sapiens, UniProt P04150); experiment: GR binding assay (3H-Dexamethasone displacement)
T4 sequence (P04150 1-777): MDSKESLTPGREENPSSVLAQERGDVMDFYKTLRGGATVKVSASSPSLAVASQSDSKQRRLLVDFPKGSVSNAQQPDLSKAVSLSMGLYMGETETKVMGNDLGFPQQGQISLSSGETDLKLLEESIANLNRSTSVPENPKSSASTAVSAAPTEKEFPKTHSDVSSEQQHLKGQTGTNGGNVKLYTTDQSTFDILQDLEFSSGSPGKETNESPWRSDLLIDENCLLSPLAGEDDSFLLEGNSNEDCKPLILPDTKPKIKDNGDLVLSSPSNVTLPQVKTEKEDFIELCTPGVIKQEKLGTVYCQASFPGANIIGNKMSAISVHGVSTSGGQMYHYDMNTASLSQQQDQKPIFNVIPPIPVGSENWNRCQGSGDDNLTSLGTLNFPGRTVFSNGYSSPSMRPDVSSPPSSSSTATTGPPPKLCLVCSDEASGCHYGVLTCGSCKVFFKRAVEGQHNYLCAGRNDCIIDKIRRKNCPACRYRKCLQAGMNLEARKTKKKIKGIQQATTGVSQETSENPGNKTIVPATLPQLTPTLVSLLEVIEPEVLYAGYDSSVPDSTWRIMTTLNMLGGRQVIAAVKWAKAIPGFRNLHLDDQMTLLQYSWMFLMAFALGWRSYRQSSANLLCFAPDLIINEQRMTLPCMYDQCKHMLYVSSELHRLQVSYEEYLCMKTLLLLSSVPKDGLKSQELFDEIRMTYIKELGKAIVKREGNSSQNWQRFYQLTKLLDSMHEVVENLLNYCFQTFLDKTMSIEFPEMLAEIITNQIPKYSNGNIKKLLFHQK

[9] = 6 days incubation, CellTiterGlo, read-out: LNCap (IC50)

## CC[C@@]1(O)C(=O)OCc2c1cc1n(c2=O)Cc2c-1nc1cc(F)c(C)c3c1c2[C@@H](N(C)C(=O)COCCC(=O)N1CCC(CN(C)c2ccc([C@H]4C[C@@]5(C)[C@@H](CC[C@]5(OC(C)=O)C(C)=O)[C@@H]5CCC6=CC(=O)CCC6=C54)cc2)CC1)CC3 [Compound 54]
[1]
  IC50: 101 to 1000 nM
[2]
  IC50: 101 to 1000 nM
[3]; [9]
  IC50: 10 to 100 nM

## CC[C@@]1(O)C(=O)OCc2c1cc1n(c2=O)Cc2cc3c(CN4CCN(CC5CCN(c6ccc(C(=O)N[C@H]7CC[C@H](N(C)c8ccc(C#N)c(Cl)c8)CC7)nn6)CC5)CC4)c(OC)ccc3nc2-1 [Compound 40, N-((1r,4r)-4-((3-chloro-4-cyanophenyl)(methyl)amino)cyclohexyl)-6-(4-((4-(((S)-4-ethyl-4-hydroxy-9-methoxy-3,14-dioxo-3,4,12,14-tetrahydro-1H-pyrano[3′,4′:6,7]indolizino[1,2-b]quinolin-10-yl)methyl)piperazin-1-yl)methyl)piperidin-1-yl)pyridazine-3-carboxamide formic acid salt]
[4]
  IC50: 10 to 100 nM
[1]
  IC50: 101 to 1000 nM
[2]
  IC50: 10 to 100 nM
[5]
  IC50: > 1000 nM
[3]; [9]
  IC50: 101 to 1000 nM

## CC[C@@]1(O)C(=O)OCc2c1cc1n(c2=O)Cc2cc3c(CN(C)C)c(OC(=O)N4CCN(CC5CCN(c6ccc(C(=O)N[C@H]7CC[C@H](N(C)c8ccc(C#N)c(Cl)c8)CC7)nn6)CC5)CC4)ccc3nc2-1 [Compound No. 18, (S)-10-((Dimethylamino)methyl)-4-ethyl-4-hydroxy-3,14-dioxo-3,4,12,14-tetrahydro-1H-pyrano[3′,4′:6,7]indolizino[1,2-b]quinolin-9-yl 4-((1-(6-(((1r,4r)-4-((3-chloro-4-cyanophenyl)(methyl)-amino)cyclohexyl)carbamoyl)pyridazin-3-yl)piperidin-4-yl)methyl)piperazine-1-carboxylate]
[4]
  IC50: 10 to 100 nM
[1]
  IC50: 101 to 1000 nM
[6]
  IC50: 10 to 100 nM
[5]
  IC50: 101 to 1000 nM
[7]
  IC50: 101 to 1000 nM
[8]
  IC50: 101 to 1000 nM
[3]; read-out: LNCap (IC50, nM)
  IC50: 10 to 100 nM

## CC[C@@]1(O)C(=O)OCc2c1cc1n(c2=O)Cc2cc3c(CN(C)C)c(OC(=O)N4C[C@H](C)N(C(=O)C5CCN(c6ccc(C(=O)N[C@H]7CC[C@H](Oc8ccc(C#N)c(Cl)c8C)CC7)nn6)CC5)C[C@H]4C)ccc3nc2-1 [Compound No. 21, (S)-10-((Dimethylamino)methyl)-4-ethyl-4-hydroxy-3,14-dioxo-3,4,12,14-tetrahydro-1H-pyrano[3′,4′:6,7]indolizino[1,2-b]quinolin-9-yl (2R,5S)-4-(1-(6-(((1r,4r)-4-(3-chloro-4-cyano-2-methylphenoxy)cyclohexyl)carbamoyl)pyridazin-3-yl)piperidine-4-carbonyl)-2,5-dimethylpiperazine-1-carboxylate Formate]
[4]
  IC50: < 10 nM
[1]
  IC50: > 1000 nM
[6]
  IC50: 101 to 1000 nM
[5]
  IC50: > 1000 nM
[7]
  IC50: > 1000 nM
[8]
  IC50: > 1000 nM
[3]; read-out: LNCap (IC50, nM)
  IC50: 10 to 100 nM

## CC[C@@]1(O)C(=O)OCc2c1cc1n(c2=O)Cc2cc3c(CN4CCN(C(=O)C5CCN(c6ccc(C(=O)N[C@H]7CC[C@H](Oc8ccc(C#N)c(Cl)c8C)CC7)nn6)CC5)CC4)c(OC(=O)N4CCN(C)CC4)ccc3nc2-1 [Compound 27, (S)-10-((4-(1-(6-(((1r,4r)-4-(3-Chloro-4-cyano-2-methylphenoxy)cyclohexyl)carbamoyl)-pyridazin-3-yl)piperidine-4-carbonyl)piperazin-1-yl)methyl)-4-ethyl-4-hydroxy-3,14-dioxo-3,4,12,14-tetrahydro-1H-pyrano[3′,4′:6,7]indolizino[1,2-b]quinolin-9-yl 4-methylpiperazine-1-carboxylate Formate]
[4]
  IC50: < 10 nM
[6]
  IC50: 101 to 1000 nM
[5]
  IC50: 101 to 1000 nM
[7]
  IC50: > 1000 nM
[8]
  IC50: 10 to 100 nM
[3]; read-out: LNCap (IC50, nM)
  IC50: 10 to 100 nM

## CC[C@@]1(OC(=O)N2CCN(CCCCCCN(C)c3ccc([C@H]4C[C@@]5(C)[C@@H](CC[C@]5(OC(C)=O)C(C)=O)[C@@H]5CCC6=CC(=O)CCC6=C54)cc3)CC2)C(=O)OCc2c1cc1n(c2=O)Cc2cc3cc(O)ccc3nc2-1 [Compound 57, (S)-4-ethyl-9-hydroxy-3,14-dioxo-3,4,12,14-tetrahydro-1H-pyrano[3′,4′:6,7]indolizino[1,2-b]quinolin-4-yl 4-(6-((4-((8S,11R,13S,14S,17R)-17-acetoxy-17-acetyl-13-methyl-3-oxo-2,3,6,7,8,11,12,13,14,15,16,17-dodecahydro-1H-cyclopenta[a]phenanthren-11-yl)phenyl)(methyl)amino)hexyl)piperazine-1-carboxylate]
[4]
  IC50: 10 to 100 nM
[1]
  IC50: > 1000 nM
[2]
  IC50: 10 to 100 nM
[8]
  IC50: < 10 nM
[3]; [9]
  IC50: 101 to 1000 nM
